Results published in US20240325398A1, “COMBINATION THERAPIES” (Infinity Pharmaceuticals, Inc., priority 2014, published 2024).

What was measured:
[1] = test system: CDK1, CDK2, CDK4, CDK7 and CDK9; settings: in words; cited from earlier work
[2] = test system: HBL-1; assay: Combination study, ATPLite 72 h, dose matrix (Synergy Score, CI50); settings: combination with Compound 1, 72 h
[3] = test system: GRANTA-519; assay: as above; settings: combination with Compound 1
[4] = test system: TMD8; assay: as above; settings: combination with Compound 1; for CI50 growth inhibition / CI50 inhibition / Synergy Score growth inhibition / Synergy Score inhibition: TMD8, 72 h
Experimental: (§1) Cells are thawed from a liquid nitrogen preserved state. Once cells have been expanded and divide at their expected doubling times, screening begins. Cells are seeded in growth media in either black 1536-well or 384-well tissue culture treated plates. Cells are then equilibrated in assay plates via centrifugation and placed in incubators attached to the Dosing Modules at 37° C. for 24 hours before treatment. […] These Tzero (To) plates are read using ultra-sensitive luminescence on Envision plate readers (Perkin Elmer). Treated assay plates are incubated with compound for 72 hours. After 72 hours, plates are developed for endpoint analysis using ATPLite. All data points are collected via automated processes, quality controlled and analyzed using Zalicus software.
(§2) where T is treated cell count and V is untreated (vehicle) cell count (at 72 hours). I ranges from 0% (when T=V) to 100% (when T=0). […] The measure of effect in the experiment can be the inhibition of cellular response relative to the untreated level (vehicle alone). […] The inhibition ranges from 0% at the untreated level to 100% when T=0. Inhibition levels are negative for agents that actually increase levels. Other effect measures, such as an activity ratio r=T/V may be more appropriate for some assays. When activity ratios (e.g, fold increase over stimulated control) are being used, the effect can be measured using an induction 1=ln(T/V). With this definition, all effect expressions are the same as for inhibition.
(§3) Growth Inhibition (GI) is used as a measure of cell viability. […] A GI reading of 100% represents complete growth inhibition—T72 compound-treated and T0 vehicle signals are matched. […] A GI reading of 200% represents complete death of all cells in the culture well. Compounds reaching an activity plateau of GI 200% are considered cytotoxic. GI is calculated by applying the following test and equation:
(§4) Combination analysis data were collected in a 6×6 dose matrix. Synergy is calculated by comparing a combination's response to those of its single compound, against the drug-with-itself dose-additive reference model. Deviations from dose additivity may be assessed visually on an isobologram or numerically with a Combination Index (CI). […] Additive effect is CI=1.0. […] Antagonistic effect is CI>1.0.
The isobologram was drawn by identifying the locus of concentrations that correspond to crossing the indicated inhibition level. This is done by finding the crossing point for each single agent concentration in a dose matrix across the concentrations of the other single agent. Practically, each vertical concentration CY is held fixed while a bisection algorithm is used to identify the horizontal concentration CX in combination with that vertical dose that gives the chosen effect level in the response surface Z(CX,CY). These concentrations are then connected by linear interpolation to generate the isobologram display. For synergistic interactions, the isobologram contour fall below the additivity threshold and approaches the origin, and an antagonistic interaction would lie above the additivity threshold. The error bars represent the uncertainty arising from the individual data points used to generate the isobologram. The uncertainty for each crossing point is estimated from the response errors using bisection to find the concentrations where Z−αZ(CX,CY) and Z+σZ(CX,CY) cross Icut, where αZ is the standard deviation of the residual error on the effect scale.
(§5) To measure combination effects in excess of Loewe additivity, a scalar measure to characterize the strength of synergistic interaction termed the Synergy Score is devised. The Synergy Score is calculated as:
The fractional inhibition for each component agent and combination point in the matrix is calculated relative to the median of all vehicle-treated control wells.

[5] = test system: OCI-Ly3; assay: as above; settings: combination with Compound 1; OCI-Ly3; 72 h
[6] = test system: DOHH-2; assay: as above; settings: combination with Compound 1, 72 h
Experimental: as §1
(§6) The measure of effect in the experiment can be the inhibition of cellular response relative to the untreated level (vehicle alone). […] The inhibition ranges from 0% at the untreated level to 100% when T=0. Inhibition levels are negative for agents that actually increase levels.
as §3, §4, §5
(§7) The fractional inhibition for each component agent and combination point in the matrix is calculated relative to the median of all vehicle-treated control wells. The Synergy Score equation integrates the experimentally-observed activity volume at each point in the matrix in excess of a model surface numerically derived from the activity of the component agents using the Loewe model for additivity. Additional terms in the Synergy Score equation (above) are used to normalize for various dilution factors used for individual agents and to allow for comparison of synergy scores across an entire experiment. The inclusion of positive inhibition gating or an Idata multiplier removes noise near the zero effect level, and biases results for synergistic interactions at that occur at high activity levels.
(§8) Loewe Volume (Loewe Vol) is used to assess the overall magnitude of the combination interaction in excess of the Loewe additivity model. Loewe Volume is particularly useful when distinguishing synergistic increases in a phenotypic activity (positive Loewe Volume) versus synergistic antagonisms (negative Loewe Volume). […] This model defines additivity as a non-synergistic combination interaction where the combination dose matrix surface should be indistinguishable from either drug crossed with itself. The calculation for Loewe additivity is:

[7] = test system: Farage; assay: as above; settings: combination with Compound 1; Farage; 72 h
[8] = test system: Mino; assay: as above; settings: combination with Compound 1
[9] = test system: HH; assay: as above; format: cell-based; settings: combination with Compound 1
Experimental: The method is described as follows.
Additive effect is CI=1.0. […] Antagonistic effect is CI>1.0.
The Synergy Score is calculated as: […]

[10] = test system: OCI-Ly7; assay: as above; settings: combination with Compound 1, 72 h
[11] = test system: Jeko-1; assay: as above; settings: combination with Compound 1
[12] = test system: U-2932; assay: as above; settings: combination with Compound 1, 72 h
[13] = test system: NCI-H929; assay: as above; settings: combination with Compound 1
[14] = test system: SU-DHL-10-epst; assay: as above; settings: combination with Compound 1, 72 h
Experimental: as §1, §6, §3, §4, §5, §7, §8

[15] = test system: SU-DHL-4-epst; assay: as above; settings: combination with Compound 1, 72 h
[16] = test system: RL; assay: as above; settings: combination with Compound 1, 72 h
[17] = test system: RPMI-8226; assay: as above; settings: combination with Compound 1
[18] = test system: KARPAS-299; assay: as above; settings: combination with Compound 1
[19] = test system: KARPAS-422; assay: as above; settings: combination with Compound 1, 72 h
Experimental: as §1, §2, §3, §4, §5, §7
Loewe Volume (Loewe Vol) is used to assess the overall magnitude of the combination interaction in excess of the Loewe additivity model. Loewe Volume is particularly useful when distinguishing synergistic increases in a phenotypic activity (positive Loewe Volume) versus synergistic antagonisms (negative Loewe Volume). […] This model defines additivity as a non-synergistic combination interaction where the combination dose matrix surface should be indistinguishable from either drug crossed with itself.

[20] = as above; settings: combination with Compound 1; OPM-2
[21] = test system: OMP-2; assay: as above; settings: combination with Compound 1; OPM-2
[22] = test system: WSU-NHL; assay: as above; settings: combination with Compound 1, 72 h

CC1(C)/C(=C2/C(=O)Nc3ccc(S(N)(=O)=O)cc32)Nc2ccccc21 [ZK-304709, (Z)-3,3-dimethyl-2′-oxo-[2,3′-biindolinylidene]-5′-sulfonamide]
IC50 values, CDK1, CDK2, CDK4, CDK7 and CDK9 [1]: nanomolar range

CCCCCCCCCCCCCCCCCCOP(=O)([O-])OC1CC[N+](C)(C)CC1 [perifosine, 1,1-dimethylpiperidinium-4-yl octadecyl phosphate]
CI50 growth inhibition [2]: U (U=0.7 to <1) | CI50 inhibition [2]: W (W=≥1) | Synergy Score growth inhibition [2]: A3 (A3=>3) | Synergy Score inhibition [2]: A1 (A1=0.0001 to <1) | CI50 growth inhibition [3]: S (S=0.01 to <0.5) | CI50 inhibition [3]: W (W=≥1) | Synergy Score growth inhibition [3]: A2 (A2=1 to <3) | Synergy Score inhibition [3]: A1 (A1=0.0001 to <1) | CI50 growth inhibition [4]: T (T=0.5 to <0.7) | CI50 inhibition [4]: T (T=0.5 to <0.7) | Synergy Score growth inhibition [4]: A2 (A2=1 to <3) | Synergy Score inhibition [4]: A2 (A2=1 to <3) | CI50 growth inhibition [5]: W (W=≥1) | CI50 inhibition [5]: W (W=≥1) | Synergy Score growth inhibition [5]: A1 (A1=0.0001 to <1) | Synergy Score inhibition [5]: A1 (A1=0.0001 to <1) | CI50 growth inhibition [6]: T (T=0.5 to <0.7) | CI50 inhibition [6]: U (U=0.7 to <1) | Synergy Score growth inhibition [6]: A3 (A3=>3) | Synergy Score inhibition [6]: A2 (A2=1 to <3) | CI50 growth inhibition [7]: S (S=0.01 to <0.5) | CI50 inhibition [7]: T (T=0.5 to <0.7) | Synergy Score growth inhibition [7]: A3 (A3=>3) | Synergy Score inhibition [7]: A2 (A2=1 to <3) | CI50 growth inhibition [8]: U (U=0.7 to <1) | CI50 inhibition [8]: W (W=≥1) | Synergy Score growth inhibition [8]: A2 (A2=1 to <3) | Synergy Score inhibition [8]: A1 (A1=0.0001 to <1) | CI50 growth inhibition [9]: W (W=≥1) | CI50 inhibition [9]: S (S=0.01 to <0.5) | Synergy Score growth inhibition [9]: A3 (A3=>3) | Synergy Score inhibition [9]: A2 (A2=1 to <3) | CI50 growth inhibition [10]: U (U=0.7 to <1) | CI50 inhibition [10]: W (W=≥1) | Synergy Score growth inhibition [10]: A2 (A2=1 to <3) | Synergy Score inhibition [10]: A1 (A1=0.0001 to <1) | CI50 growth inhibition [11]: U (U=0.7 to <1) | CI50 inhibition [11]: W (W=≥1) | Synergy Score growth inhibition [11]: A1 (A1=0.0001 to <1) | Synergy Score inhibition [11]: A1 (A1=0.0001 to <1) | CI50 growth inhibition [12]: W (W=≥1) | CI50 inhibition [12]: W (W=≥1) | Synergy Score growth inhibition [12]: A1 (A1=0.0001 to <1) | Synergy Score inhibition [12]: A1 (A1=0.0001 to <1) | CI50 growth inhibition [13]: U (U=0.7 to <1) | CI50 inhibition [13]: W (W=≥1) | Synergy Score growth inhibition [13]: A2 (A2=1 to <3) | Synergy Score inhibition [13]: A1 (A1=0.0001 to <1) | CI50 growth inhibition [14]: T (T=0.5 to <0.7) | CI50 inhibition [14]: U (U=0.7 to <1) | Synergy Score growth inhibition [14]: A2 (A2=1 to <3) | Synergy Score inhibition [14]: A2 (A2=1 to <3) | CI50 growth inhibition [15]: S (S=0.01 to <0.5) | CI50 inhibition [15]: U (U=0.7 to <1) | Synergy Score growth inhibition [15]: A2 (A2=1 to <3) | Synergy Score inhibition [15]: A1 (A1=0.0001 to <1) | CI50 growth inhibition [16]: W (W=≥1) | CI50 inhibition [16]: W (W=≥1) | Synergy Score growth inhibition [16]: A1 (A1=0.0001 to <1) | Synergy Score inhibition [16]: A1 (A1=0.0001 to <1) | CI50 growth inhibition [17]: T (T=0.5 to <0.7) | CI50 inhibition [17]: U (U=0.7 to <1) | Synergy Score growth inhibition [17]: A3 (A3=>3) | Synergy Score inhibition [17]: A1 (A1=0.0001 to <1) | CI50 growth inhibition [18]: W (W=≥1) | CI50 inhibition [18]: W (W=≥1) | Synergy Score growth inhibition [18]: A1 (A1=0.0001 to <1) | Synergy Score inhibition [18]: A1 (A1=0.0001 to <1) | CI50 growth inhibition [19]: W (W=≥1) | CI50 inhibition [19]: U (U=0.7 to <1) | Synergy Score growth inhibition [19]: A1 (A1=0.0001 to <1) | Synergy Score inhibition [19]: A1 (A1=0.0001 to <1) | CI50 growth inhibition [20]: U (U=0.7 to <1) | CI50 inhibition [21]: W (W=≥1) | Synergy Score growth inhibition [21]: A2 (A2=1 to <3) | Synergy Score inhibition [21]: A1 (A1=0.0001 to <1) | CI50 growth inhibition [22]: U (U=0.7 to <1) | CI50 inhibition [22]: T (T=0.5 to <0.7) | Synergy Score growth inhibition [22]: A3 (A3=>3) | Synergy Score inhibition [22]: A2 (A2=1 to <3)

CC(=O)Nc1cccc(-n2c(=O)n(C3CC3)c(=O)c3c(Nc4ccc(I)cc4F)n(C)c(=O)c(C)c32)c1 [trametinib, N-(3-{3-cyclopropyl-5-[(2-fluoro-4-iodophenyl)amino]-6,8-dimethyl-2,4,7-trioxo-3,4,6,7-tetrahydropyrido[4,3-d]pyrimidin-1(2H)-yl}phenyl)acetamide]
CI50 growth inhibition [2]: U (U=0.7 to <1) | Synergy Score growth inhibition [2]: A2 (A2=1 to <3) | Synergy Score inhibition [2]: A1 (A1=0.0001 to <1) | CI50 growth inhibition [3]: S (S=0.01 to <0.5) | Synergy Score growth inhibition [3]: A2 (A2=1 to <3) | Synergy Score inhibition [3]: A1 (A1=0.0001 to <1) | CI50 growth inhibition [4]: S (S=0.01 to <0.5) | CI50 inhibition [4]: S (S=0.01 to <0.5) | Synergy Score growth inhibition [4]: A3 (A3=>3) | Synergy Score inhibition [4]: A3 (A3=>3) | effect of the combination (isobologram) ([4]; TMD8 DLBCL cell line, FIG. 1-3): synergistic effect | CI50 growth inhibition [5]: W (W=≥1) | Synergy Score growth inhibition [5]: A2 (A2=1 to <3) | Synergy Score inhibition [5]: A1 (A1=0.0001 to <1) | CI50 growth inhibition [6]: U (U=0.7 to <1) | CI50 inhibition [6]: W (W=≥1) | Synergy Score growth inhibition [6]: A3 (A3=>3) | Synergy Score inhibition [6]: A2 (A2=1 to <3) | CI50 growth inhibition [7]: W (W=≥1) | CI50 inhibition [7]: U (U=0.7 to <1) | Synergy Score growth inhibition [7]: A2 (A2=1 to <3) | Synergy Score inhibition [7]: A2 (A2=1 to <3) | CI50 growth inhibition [8]: S (S=0.01 to <0.5) | CI50 inhibition [8]: S (S=0.01 to <0.5) | Synergy Score growth inhibition [8]: A3 (A3=>3) | Synergy Score inhibition [8]: A3 (A3=>3) | CI50 growth inhibition [9]: S (S=0.01 to <0.5) | CI50 inhibition [9]: S (S=0.01 to <0.5) | Synergy Score growth inhibition [9]: A3 (A3=>3) | Synergy Score inhibition [9]: A2 (A2=1 to <3) | Synergy Score growth inhibition [10]: A1 (A1=0.0001 to <1) | Synergy Score inhibition [10]: A1 (A1=0.0001 to <1) | CI50 growth inhibition [11]: U (U=0.7 to <1) | CI50 inhibition [11]: W (W=≥1) | Synergy Score growth inhibition [11]: A1 (A1=0.0001 to <1) | Synergy Score inhibition [11]: A1 (A1=0.0001 to <1) | CI50 growth inhibition [12]: U (U=0.7 to <1) | Synergy Score growth inhibition [12]: A1 (A1=0.0001 to <1) | Synergy Score inhibition [12]: A1 (A1=0.0001 to <1) | CI50 growth inhibition [13]: T (T=0.5 to <0.7) | CI50 inhibition [13]: S (S=0.01 to <0.5) | Synergy Score growth inhibition [13]: A3 (A3=>3) | Synergy Score inhibition [13]: A2 (A2=1 to <3) | CI50 growth inhibition [14]: S (S=0.01 to <0.5) | CI50 inhibition [14]: S (S=0.01 to <0.5) | Synergy Score growth inhibition [14]: A3 (A3=>3) | Synergy Score inhibition [14]: A3 (A3=>3) | CI50 growth inhibition [15]: S (S=0.01 to <0.5) | CI50 inhibition [15]: S (S=0.01 to <0.5) | Synergy Score growth inhibition [15]: A3 (A3=>3) | Synergy Score inhibition [15]: A2 (A2=1 to <3) | Synergy Score growth inhibition [16]: A1 (A1=0.0001 to <1) | Synergy Score inhibition [16]: A1 (A1=0.0001 to <1) | CI50 growth inhibition [17]: U (U=0.7 to <1) | Synergy Score growth inhibition [17]: A2 (A2=1 to <3) | Synergy Score inhibition [17]: A1 (A1=0.0001 to <1) | Synergy Score growth inhibition [18]: A1 (A1=0.0001 to <1) | Synergy Score inhibition [18]: A1 (A1=0.0001 to <1) | CI50 growth inhibition [19]: S (S=0.01 to <0.5) | CI50 inhibition [19]: S (S=0.01 to <0.5) | Synergy Score growth inhibition [19]: A2 (A2=1 to <3) | Synergy Score inhibition [19]: A2 (A2=1 to <3) | CI50 growth inhibition [20]: T (T=0.5 to <0.7) | CI50 inhibition [21]: W (W=≥1) | Synergy Score growth inhibition [21]: A2 (A2=1 to <3) | Synergy Score inhibition [21]: A2 (A2=1 to <3) | CI50 growth inhibition [22]: T (T=0.5 to <0.7) | CI50 inhibition [22]: S (S=0.01 to <0.5) | Synergy Score growth inhibition [22]: A3 (A3=>3) | Synergy Score inhibition [22]: A3 (A3=>3)
